Molecules are shown by their SMILES.

Series [1] in a line: Solubility in water. The series is classed as physicochemical.
Series [2] in a line: Distribution coefficient (n-octanol-water) shake flask method GB/T 21853-2008. Format: physicochemical. Conditions: in water.
The conditions of series [3]: cited from earlier work.
The conditions of series [4]: dog, in vivo; cited from earlier work.

Turning to `CC[C@@]1(OC(=O)OCC(C)C)C(=O)OCc2c1cc1n(c2=O)Cc2cc3c([N+](=O)[O-])cccc3nc2-1` [the compound of formula I], the solubility in water entry in series [1] was “almost insoluble in water”. Also, the “Lg Po/w” value in series [2] turned out to be 7.31. For the same molecule, the “stability in human plasma” value in series [3] is “good stability”.

In the case of `CC[C@@]1(O)C(=O)OCc2c1cc1n(c2=O)Cc2cc3c([N+](=O)[O-])cccc3nc2-1` [Example 9-NC, 9-nitro-camptothecin], the oral bioavailability result in series [4] is reported as “less than 6%”.

The values above are taken from patent US20150057305A1, “PHARMACEUTICAL COMPOSITION” (SHANGHAI HOTMED SCIENCES CO., LTD., priority 2012, published 2015).
